Data published in patent publication US20030148269A1, “Centrifugally-enhanced method of determining ligand/target affinity” (priority 1999, published 2003).
Where two headings read alike, the source gives them in different places.

How the values were obtained:
[1] = biological target: T1, erythromycin resistant methylase (Erm-AM) (Streptococcus pneumoniae, UniProt P21236); assay type: binding; conditions: 25-compound library, mass spectrometry of five fractions, with Erm AM vs buffer only
T1 construct: made in house; host or cells: E. coli BL21(DE3)/pV4, pET-24(+)
T1 sequence (P21236 whole entry, change not shown): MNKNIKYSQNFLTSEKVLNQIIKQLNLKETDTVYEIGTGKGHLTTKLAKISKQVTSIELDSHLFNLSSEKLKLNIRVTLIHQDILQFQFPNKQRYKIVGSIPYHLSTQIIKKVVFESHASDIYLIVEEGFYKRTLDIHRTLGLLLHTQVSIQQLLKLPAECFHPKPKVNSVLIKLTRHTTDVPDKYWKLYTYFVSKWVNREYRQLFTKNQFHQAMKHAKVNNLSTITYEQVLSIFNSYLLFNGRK
Protocol: (§1) Proteins and protein fragments were isolated from recombinant material produced in E. coli as described in detail below. Proteins and protein fragments were dialyzed into standard buffers comprising either a) a mixture of 20 mM ammonium bicarbonate and 1 mM sodium azide, the pH adjusted to pH 7.2 by the addition of acetic acid, or b) 50 mM Tris-HCl, 30 mM KCl, 10 mM magnesium acetate, 10 mM 2-mercaptoethanol, 1 mM sodium azide, and 10% glycerol, pH adjusted to 7.8. In the case of the first buffer system, additional ingredients, specific to each protein, were added to the buffer mixture which included 5 mM 2-mercaptoethanol for erythromycin resistant methylase (Erm-AM), and both 5 mM 2-mercaptoethanol and 10 mM calcium chloride for the stromelysin catalytic domain (SCD). Initial protein or protein fragment concentrations ranged between 100 μM and 1 mM.
(§2) Test compounds were made up in concentrated solutions in dimethyl sulfoxide and diluted into the protein or protein fragment buffer solutions such that the final concentration of dimethyl sulfoxide in the buffer solutions was 1% volume/volume.
The compounds were added to the protein or buffer solutions in 7 mm×20 mm polycarbonate centrifuge tubes, mixed by vortexing, and placed in the centrifuge. Each mixture was then subjected to centrifugation at a speed and for a period of time sufficient to clear the solution of macromolecular target, but not of ligand. Centrifugation was carried out either in a Model TL-100 ultracentrifuge at 100,000 rpm using a TLA-100 rotor, or in a Model L-70 ultracentrifuge at 42,000 rpm using a type 42.2 rotor. (Both centrifuges are manufactured by Beckman Instruments, 1050 Page Mill Road, Palo Alto, Calif. […], USA.)
Following centrifugation, the tubes were removed from the rotor and the tube contents divided into equal volume fractions. Any reasonable number of fractions may be employed; typically four or five fractions are used. To take the fractions, a pipette was carefully inserted into the liquid column in the sample tube to a point just below the liquid meniscus. […] The fractions were individually dispensed into microfuge tubes for analysis.
Mass spectrometric analysis of the samples was performed using either electrospray ionization (ESI) or atmospheric pressure chemical ionization (APCI) techniques. The ESI technique employed either a Model TSQ-700 or a Model LCQ mass spectrometer, and the APCI technique employed a Model LCQ mass spectrometer (both instruments manufactured by the Finnigan Corporation, 355 River Oaks Parkway, San Jose, Calif. 95134, USA).
For ESI analysis, fraction samples were diluted 1:5 with 50% aqueous acetonitrile, leaving the protein or protein fragment in solution. Ten-microliter aliquots, each representing about 10% of the sample, were introduced individually into the instrument by flow injection using 50% aqueous acetonitrile as the carrier. For initial studies with APCI, fractions were likewise diluted 1:5 with 50% aqueous acetonitrile. […] To reduce this background, subsequent samples analyzed by the APCI technique were diluted 1:5 with neat acetonitrile which caused the proteins or protein fragments to release their bound test compounds and precipitate. Sample solutions were then clarified by centrifugation in a microfuge for five minutes prior to analysis by APCI.

[2] = Solubility in the centrifuge carrier solvent (buffer), spun without protein; assay type: physicochemical
Protocol: as §1
as §2, with “volume/volume. As a result, each compound in the mixture of test compounds had equal access to available binding sites on the target molecule.” for “volume/volume.”
The analysis was carried out with a 25-compound library using the spin-screen method of the present invention with the compound concentration gradients being determined by mass spectrometry. Sample preparation, centrifugation, analysis by mass spectrometry, and data analysis were according to the techniques described above under the heading “General Methodology.” The results are shown in FIGS. 3A and 3B. The figures represent planar cuts of the three-dimensional surface contour plot defined by the three axes: m/z, sample fraction, and mass spectral signal intensity. The planar cuts are taken at comparatively high values constant values of m/z. That is to say, at m/z signal levels which detected only the most strongly binding ligands in the 25-compound library.
The analysis was carried out with a 25-compound library using the spin-screen method of the present invention with the compound concentration gradients being determined by mass spectrometry. Sample preparation, centrifugation, analysis by mass spectrometry, and data analysis were according to the techniques described above under the heading “General Methodology.” The results are presented in FIGS. 5A and 5B.

[3] = biological target: T2, stromelysin catalytic domain (SCD) (Homo sapiens, UniProt P08254); assay: Affinity (Ki) for SCD previously determined by another method; assay type: binding
Target sequence in this assay (P08254 100-273): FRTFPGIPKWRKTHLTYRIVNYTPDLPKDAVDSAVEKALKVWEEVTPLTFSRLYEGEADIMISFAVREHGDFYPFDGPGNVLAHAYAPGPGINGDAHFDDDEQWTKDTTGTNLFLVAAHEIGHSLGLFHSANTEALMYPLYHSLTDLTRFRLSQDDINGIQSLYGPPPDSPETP

[4] = biological target: T2, stromelysin catalytic domain (SCD); assay: Spin-screen (centrifugation) affinity binding to SCD, concentration gradients by HPLC; parameters: coding for amino acid residues 81-256 plus an initiating methionine aminoacyl residue; initiating methionine (N); made in house; host or cells: E. coli BL21(DE3)/pLysS, plasmid pETST-81-256 (pET3d); conditions: 100 μM ligand, 100 μM SCD; HPLC of five fractions; with SCD vs buffer only
Protocol: as §1, §2
Target sequence in this assay (P08254 98-272): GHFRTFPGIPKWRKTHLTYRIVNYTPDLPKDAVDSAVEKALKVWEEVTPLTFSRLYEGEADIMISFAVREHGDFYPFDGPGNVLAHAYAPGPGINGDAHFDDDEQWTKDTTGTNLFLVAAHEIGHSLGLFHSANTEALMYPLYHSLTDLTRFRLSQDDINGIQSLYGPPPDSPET
The compounds were added to the protein or buffer solutions in 7 mm×20 mm polycarbonate centrifuge tubes, mixed by vortexing, and placed in the centrifuge. […]

[5] = biological target: yeast ribosomes isolated from Saccharomyces cerevisiae; assay: spin-screen: centrifugation with yeast ribosomes, GFP fluorescence in each of five fractions
[6] = buffer with 1% dimethyl sulfoxide

Compound	Binding to Erm AM from concentration gradient after centrifugation [1]	fraction of total fluorescence (fraction of total fluorescence) [5]	also measured
O=C(O)c1ccccc1C(=O)OC(c1ccccc1)c1cccc(Cl)c1 (centres unmarked) [1,2-benzenedicarboxylic acid, mono[(3-chlorophenyl)phenylmethyl] ester]	bound strongly	–	Binding to Erm AM from concentration gradient after centrifugation ([1]; mono [(3-chloro-phenyl)phenylmethyl] ester): bind to Erm AM
Nc1nc(NC2CCCCC2)nc(-c2ccc(O)cc2)n1 [4-[4-amino-6-(cyclohexylamino)-1,3,5-triazin-2-yl]phenol]	strongly bind	–	Solubility in the carrier solvent [2]: soluble
O=C(Nc1ccc(C(=O)O)cc1)Nc1cccc(C(F)(F)F)c1 [4-[[[[3-(trifluoromethyl)phenyl]amino]-carbonyl]amino]benzoic acid]	bound weakly	–	Binding to Erm AM from concentration gradient after centrifugation ([1]; listed as 4-[[[(3-trifluoromethyl)-phenyl]amino]carbonyl]amino]benzoic acid): bind to Erm AM
Nc1cc(Cl)c(S(N)(=O)=O)cc1S(N)(=O)=O [4-amino-6-chloro-1,3benzenesulfonamide]	medium binding	–	Solubility in the carrier solvent [2, 6]: soluble; Binding to Erm AM from concentration gradient after centrifugation ([1]; listed as 4-amino-6-chloro-1,3-benzenesulfonamide): bind to Erm AM
O=c1cc(O)c2ccccc2n1-c1ccc(OCc2ccccc2)cc1 [4-hydroxy-1-[4-(phenylmethoxy)phenyl]-2(1H)-quinoline]	strongly bound	–	Solubility in the carrier solvent [2, 6]: soluble; Binding to Erm AM from concentration gradient after centrifugation ([1]; listed as 4-hydroxy-1-[4-(phenylmethoxy)-phenyl]-2(1H)-quinoline): bind to Erm AM
N#Cc1ccc(-c2ccc(O)cc2)cc1 [4′-hydroxy-1,1-biphenyl-4-carbonitrile]	–	–	Ki [3]: ~1000 µM; Binding to SCD from concentration gradient after centrifugation [4]: binds weakly
Nc1nc(NC2CCCCC2)nc(N2CCCCC2)n1 [N-cyclohexyl-6-(1-piperidinyl)-1,3,5-triazine-2,4-diamine]	strongly bind	–	Solubility in the carrier solvent [2]: soluble; Binding to Erm AM from concentration gradient after centrifugation ([1]; listed as m/z=277): bound more strongly to Erm-AM than the compound at m/z=286
CN(CCCc1c(O)cc(Cl)cc1Cl)c1nc(N)nc(NC2CCCCC2)n1 [N′cyclohexyl-N-[3-(2,4-dichloro-6-hydroxyphenyl)propyl]-N-methyl-1,3,5triazine-2,4,6-triamine]	strongly bind	–	Solubility in the carrier solvent [2]: insoluble
GFP-EF3 fusion protein GFP-980-1008	–	0.2	–
GFP-EF3 fusion protein GFP-980-1008:1025-1031	–	0.2	–
GFP-EF3 fusion protein GFP-980-1013	–	0.2	–
GFP-EF3 fusion protein GFP-980-1019	–	0.2	–
GFP-EF3 fusion protein GFP-980-1025	–	0.2	–
N-[3-(2,4-dichloro-6-hydroxyphenyl)propyl]-N′-(2,3-dihydro-1H-inden-2-yl)	strongly bind	–	Solubility in the carrier solvent [2]: insoluble
